Where two headings read alike, the source gives them in different places.

Data set [1] has as its target T1, CatSper (Homo sapiens, UniProt Q7RTX7+Q86XQ3+Q8NEC5+Q96P56).
T1 construct: Motile spermatozoa were selected by a ‘swim-up’ procedure; endogenous in cells; host or cells: motile human spermatozoa (swim-up) from healthy donors
Put plainly: Inhibition of P4-induced Ca2+ influx in human sperm (screen 2 inhibitors). It is filed as cell-based. The conditions noted are these: for Max P4 inhibition (%) (± SD): 3 independent experiments.

Data set [2] deals with T1, CatSper. Put plainly: Inhibition of PGE1-induced Ca2+ influx in human sperm (screen 2 inhibitors). It is filed as cell-based. How it is done:
Briefly, motile spermatozoa were selected by swim-up and labeled with the fluorescent calcium indicator Fluo-4 a.m. to image changes in [Ca^2+]i. After centrifugation to remove excess dye, Fluo-4 AM loaded cells were distributed in a 384-wells plate to obtain ∼125,000 cells/well. After measuring basal fluorescence, a first injection of compounds was performed in order to evaluate their effect on [Ca^2+]i alone. This first screen is therefore considered as a screen to search for ‘activators’. Fluorescence was recorded for 12 min during which sperm cells were continuously exposed to compounds. P4 or PGE1 were then added in the same wells to evaluate whether the tested compounds can reduce the ligand-induced activation of CatSper. This second screen was therefore considered to be a search for CatSper ‘inhibitors’.
Human semen samples were collected from healthy donors by masturbation after a recommended sexual abstinence period of minimum 2 days. Semen samples were allowed to liquefy at 37°C for 15–30 min. Motile spermatozoa were selected by a ‘swim-up’ procedure as previously described ([Strünker et al., 2011]). Briefly, 1 mL of semen was deposited in a 45°-inclined 50 mL Falcon tube with 4 mL of Human Tubular Fluid (HTF) medium containing: 93.8 mM NaCl, 4.7 mM KCl, 0.2 mM MgSO4, 0.37 mM KH2PO4, 2.04 mM CaCl2, 20.98 mM HEPES, 2.78 mM glucose, 21.4 mM Na-lactate, 4 mM NaHCO3, 0.33 mM Na-pyruvate, and the pH was adjusted to 7.35. Motile sperm were allowed to swim at 37°C for 1 hour. The supernatant was collected in 15 mL Falcon tubes and washed twice by centrifugation at 700 x g for 20 min. Sperm were supplemented with 3 mg/mL HSA. Written informed consent was obtained from all donors prior to donation and approved by the Cantonal Ethics Committee of the State of Geneva (CCER #14-147).
Cells were loaded with the fluorescent Ca^2+ indicator Fluo-4 AM at a final concentration of 2.5 µM for 30 min at 37°C. Excess dye was washed via centrifugation at 700 x g for 20 min and sperm were resuspended in HTF medium to obtain a final concentration of 6.25 x 10^6 cells/mL. 20 μL of cells (corresponding to ∼125,000 cells) loaded with Fluo-4 a.m. were dispensed in a 384-wells plate (Corning, NY, United States) to allow fluorescence measurement. The dye was excited at 480 nm, and emission was recorded at 530 nm. The change in [Ca^2+]i was assessed simultaneously in all wells using a Functional Drug Screening System (FDSS/μCELL) (Hamamatsu Phototonics K.K., Yokohama, Japan) at 37°C. Basal fluorescence was first measured for 30 s. […] P4 and PGE1 were tested at a near-saturating concentration in the HTS in order to evaluate a potential additive or synergistic effect induced by the compounds. Non-specific CatSper inhibitor MDL 12330A was used as a negative control at final concentration of 20 µM while DMSO was used as a vehicle control. For alkalization-induced Ca^2+ measurement, NH4Cl was used as a positive control at a final concentration of 10 mM. Fluorescence was recorded for a total of 16.5 min: 30 s before injection, 12 min after the first injection of the tested compounds, and 4 min after the second injection of either P4 or PGE1. The Prestwick library was tested in technical duplicate. Ca^2+ response curves were normalized using the following formula F−F0/F0×100 , where F 0 is the average of the basal fluorescence prior to the addition of the compound of interest and F corresponds to the fluorescence value at each time point. The ∆F/F0 of the vehicle control (DMSO) was subtracted from all the other values to adjust for dilution and pipetting artifacts. The values of all compounds were normalized to their respective controls.

For data set [3] the following is noted: ref Löfgren and Bäckström (1990), cited from earlier work.
The target in data set [4] is T1, CatSper. Put plainly: Cross-desensitization: P4 dose-response after pre-incubation with steroid at 10 µM. It is filed as cell-based. The conditions noted are these: in the presence of predicted steroid at 10 µM, normalized to DMSO; P4 = control curve; n = 3; read-out: EC50 generated from concentration-response curves of P4-induced [Ca2+]i influx.
The test system of data set [5] is human sperm. Put plainly: Sperm penetration in viscous media (modified Kremer test). The data set is classed as cell-based. The note with it: steroids 10 µM, P4 5 µM, 1 h, 1% methylcellulose. How it is done:
The ability of sperm to penetrate in viscous media similar in viscosity to that found in the female reproductive tract was assessed using the modified Kremer test, as previously described ([Rahban et al., 2021]). Briefly, swim-up recovered and capacitated sperm cells at 3 x 10^6/mL were incubated in the absence (DMSO) or presence of steroids (10 µM), or P4 (5 µM) as a positive control for 1 h at 37°C. A glass capillary (0.2 × 4.0 × 50 mm, CM scientific, UK) was filled with 1% (w/v) methylcellulose (MC, 4000 centipoises cP) prepared with HTF media supplemented with 3 mg/mL HSA, respective compounds (10 µM), P4 (5 µM), or DMSO. The glass capillary tube was then sealed on one end with wax (Vitrex, UK) and added to the sperm cells on the open end. Sperm penetration was assessed after 1 h of incubation at 37°C by counting sperm at 1 cm using a microscope with a ×10 objective.

Setting [6] is: IC50 (±SD), inhibition of P4-induced Ca2+ response, dose-response 90 µM to 0.3 nM.
The mark [7] stands for this setting: Mean IC50 (P4) µM (±SD), P4-induced response, pooled from 3 independent experiments.

For orientation: IC50 means the concentration that inhibits the measured activity by half. Consider `C[C@]12CC[C@H](O)C[C@@H]1CC[C@@H]1[C@@H]2CC[C@]2(C)C(=O)CC[C@@H]12` [Epiandrosterone], for which the “Max P4 inhibition (%) (± SD)” value in data set [1] is 72 (±2) %. Moreover, the IC50 in data set [1] (setting [6]) stood at 0.628 µM; in data set [1] (setting [7]), 0.625 µM.

In the case of `CC(=O)[C@H]1CC[C@H]2[C@@H]3CC=C4C[C@@H](O)CC[C@]4(C)[C@H]3CC[C@]12C` [Pregnenolone], in data set [1], the “Max P4 inhibition (%) (± SD)” value is 82 (±5) %. Also, the IC50 in data set [1] (setting [6]) is 0.199 µM; in data set [2], 0.011 µM.

Turning to `CC(=O)[C@H]1CC[C@H]2[C@@H]3CCC4=CC(=O)CC[C@]4(C)[C@H]3CC[C@]12C` [Progesterone], the Maximum serum level in data set [3] (female) is reported as 60 nM (female); in data set [3] (male) it was 3 nM (male). In addition, in data set [1], the “Max P4 inhibition (%) (± SD)” value is reported as 79 (±7) %. Moreover, the IC50 in data set [1] (inhibition of P4-induced Ca2+ response, dose-response 90 µM to 0.3 nM, read-out: IC50 (±SD)) was determined as 0.006 µM. Besides, the EC50 in data set [4] was 0.005 µM.

As for `C[C@]12Cc3c[nH]nc3C[C@@H]1CC[C@@H]1[C@@H]2CC[C@@]2(C)[C@H]1CC[C@]2(C)O` [Stanozolol], in data set [1], the “Max P4 inhibition (%) (± SD)” value is 96 (±2) %. The IC50 in data set [1] (setting [6]) was determined as 0.194 µM; in data set [1] (setting [7]), 0.19 µM; in data set [2] it was 0.117 µM. Besides, the “number of sperm penetrating viscous medium at 1 cm” value in data set [5] was “significant increase in cell number”.

The values are drawn from PMC10397409, “The action of physiological and synthetic steroids on the calcium channel CatSper in human sperm” (Frontiers in Cell and Developmental Biology, 2023).
